Tests used:
[1] = Biodistribution study in LNCaP tumor-bearing mice (Th227 counted in organs); type: in vivo, SCID mice
Procedure, shortened: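 SCID mice bearing testosterone pellets and subcutaneous LNCaP flank tumors (~50 mm^2) received a single intravenous dose of the radioactive compound. At set time points, n=3 animals were sacrificed, and organs were removed, weighed and counted for Th227 on a Germanium detector.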

C4-2 cells = experiment: Cell proliferation assay (CellTiter-Glo, 5-day exposure), C4-2; type: cell-based; settings: C4-2, 1000 cells/well, Th-227 labelled at 375 kBq/nmol, mean of 1 to 6 experiments
Procedure, shortened: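 Thorium-227-labeled PSMA small-molecule ligands were applied for 5 days to prostate cancer lines plated overnight at 1000 cells/well (22Rv1, C4-2, LNCaP) or 4000 cells/well (VCaP). CellTiter-Glo luminescence gave viability at day 0 in sister plates and again after exposure.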

O=C([O-])CN1CCN(CC(=O)[O-])CCN(CC(=O)NCC2CCC(C(=O)NC(Cc3ccc4ccccc4c3)C(=O)NCCCCC(NC(=O)NC(CCC(=O)O)C(=O)O)C(=O)O)CC2)CCN(CC(=O)[O-])CC1.[227Th+4] [Example 1-B-227Th, [^227Th]Thorium (3S,10S,14S)-3-[(naphthalen-2-yl)methyl]-1,4,12-trioxo-1-{(1r,4S)-4-[(2-{4,7,10-tris[(carboxy-kappaO)methyl]-1,4,7,10-tetraazacyclododecan-1-yl-kappa^4N^1,N^4,N^7,N^10}acetamido)methyl]cyclohexyl}-2,5,11,13-tetraazahexadecane-10,14,16-tricarboxylate]
Th-227 in Tumor ([1]; 6 hr, 500 kBq/kg, study b2999): 9.80 % ID Th-227/g organ
Th-227 in prostate ([1]; 6 hr, 500 kBq/kg, study b2999): 6.41 % ID Th-227/g organ
Th-227 in Blood ([1]; 24 h, 500 kBq/kg, study b2999): 0.01 % ID Th-227/g organ
Th-227 in Femur and tibia ([1]; 24 h, 500 kBq/kg, study b2999): 0.23 % ID Th-227/g organ
Th-227 in Kidneys ([1]; 24 h, 500 kBq/kg, study b2999): 26.81 % ID Th-227/g organ
Th-227 in Liver ([1]; 24 h, 500 kBq/kg, study b2999): 0.18 % ID Th-227/g organ
Th-227 in Salivary gland ([1]; 24 h, 500 kBq/kg, study b2999): 1.24 % ID Th-227/g organ
Th-227 in Spleen ([1]; 24 h, 500 kBq/kg, study b2999): 0.33 % ID Th-227/g organ
Th-227 in Tumor ([1]; 24 h, 500 kBq/kg, study b2999): 14.45 % ID Th-227/g organ
Th-227 in prostate ([1]; 24 h, 500 kBq/kg, study b2999): 0.00 % ID Th-227/g organ
Th-227 in Blood ([1]; 24 h, 1500 kBq/kg): 0.02% ID Th-227/g organ
Th-227 in Liver ([1]; 24 h, 1500 kBq/kg): 1.05% ID Th-227/g organ
Th-227 in Spleen ([1]; 24 h, 1500 kBq/kg): 1.24% ID Th-227/g organ
Th-227 in Tumor ([1]; 24 h, 1500 kBq/kg): 9.81% ID Th-227/g organ
Th-227 in bone ([1]; 24 h, 1500 kBq/kg): 9.38% ID Th-227/g organ
Th-227 in brain ([1]; 24 h, 1500 kBq/kg): 0.00% ID Th-227/g organ
Th-227 in kidney ([1]; 24 h, 1500 kBq/kg): 11.30% ID Th-227/g organ
Th-227 in large intestine ([1]; 24 h, 1500 kBq/kg): 0.12% ID Th-227/g organ
Th-227 in lung ([1]; 24 h, 1500 kBq/kg): 0.50% ID Th-227/g organ
Th-227 in muscle ([1]; 24 h, 1500 kBq/kg): 0.16% ID Th-227/g organ
Th-227 in prostate ([1]; 24 h, 1500 kBq/kg): 0.00% ID Th-227/g organ
Th-227 in salivary glands ([1]; 24 h, 1500 kBq/kg): 0.32% ID Th-227/g organ
Th-227 in small intestine ([1]; 24 h, 1500 kBq/kg): 0.23% ID Th-227/g organ
Th-227 in Blood ([1]; 72 h, 500 kBq/kg, study b2999): 0.00 % ID Th-227/g organ
Th-227 in Femur and tibia ([1]; 72 h, 500 kBq/kg, study b2999): 0.33 % ID Th-227/g organ
Th-227 in Kidneys ([1]; 72 h, 500 kBq/kg, study b2999): 19.30 % ID Th-227/g organ
Th-227 in Liver ([1]; 72 h, 500 kBq/kg, study b2999): 0.26 % ID Th-227/g organ
Th-227 in Salivary gland ([1]; 72 h, 500 kBq/kg, study b2999): 0.73 % ID Th-227/g organ
Th-227 in Spleen ([1]; 72 h, 500 kBq/kg, study b2999): 0.92 % ID Th-227/g organ
Th-227 in Tumor ([1]; 72 h, 500 kBq/kg, study b2999): 21.94 % ID Th-227/g organ
Th-227 in prostate ([1]; 72 h, 500 kBq/kg, study b2999): 0.00 % ID Th-227/g organ
Th-227 in Blood ([1]; 96 h, 1500 kBq/kg): 0.00% ID Th-227/g organ
Th-227 in Liver ([1]; 96 h, 1500 kBq/kg): 1.56% ID Th-227/g organ
Th-227 in Spleen ([1]; 96 h, 1500 kBq/kg): 2.79% ID Th-227/g organ
Th-227 in Tumor ([1]; 96 h, 1500 kBq/kg): 10.02% ID Th-227/g organ
Th-227 in bone ([1]; 96 h, 1500 kBq/kg): 10.31% ID Th-227/g organ
Th-227 in brain ([1]; 96 h, 1500 kBq/kg): 0.00% ID Th-227/g organ
Th-227 in kidney ([1]; 96 h, 1500 kBq/kg): 1.96% ID Th-227/g organ
Th-227 in large intestine ([1]; 96 h, 1500 kBq/kg): 0.12% ID Th-227/g organ
Th-227 in lung ([1]; 96 h, 1500 kBq/kg): 0.55% ID Th-227/g organ
Th-227 in muscle ([1]; 96 h, 1500 kBq/kg): 0.08% ID Th-227/g organ
Th-227 in prostate ([1]; 96 h, 1500 kBq/kg): 0.00% ID Th-227/g organ
Th-227 in salivary glands ([1]; 96 h, 1500 kBq/kg): 0.42% ID Th-227/g organ
Th-227 in small intestine ([1]; 96 h, 1500 kBq/kg): 0.21% ID Th-227/g organ
Th-227 in Blood ([1]; 168 h, 500 kBq/kg, study b2999): 0.00 % ID Th-227/g organ
Th-227 in Femur and tibia ([1]; 168 h, 500 kBq/kg, study b2999): 0.18 % ID Th-227/g organ
Th-227 in Kidneys ([1]; 168 h, 500 kBq/kg, study b2999): 3.56 % ID Th-227/g organ
Th-227 in Liver ([1]; 168 h, 500 kBq/kg, study b2999): 0.21 % ID Th-227/g organ
Th-227 in Salivary gland ([1]; 168 h, 500 kBq/kg, study b2999): 0.00 % ID Th-227/g organ
Th-227 in Spleen ([1]; 168 h, 500 kBq/kg, study b2999): 0.31 % ID Th-227/g organ
Th-227 in Tumor ([1]; 168 h, 500 kBq/kg, study b2999): 9.80 % ID Th-227/g organ
Th-227 in prostate ([1]; 168 h, 500 kBq/kg, study b2999): 0.00 % ID Th-227/g organ
Th-227 in Blood ([1]; 336 h, 500 kBq/kg, study b2999): 0.00 % ID Th-227/g organ
Th-227 in Femur and tibia ([1]; 336 h, 500 kBq/kg, study b2999): 0.25 % ID Th-227/g organ
Th-227 in Kidneys ([1]; 336 h, 500 kBq/kg, study b2999): 0.78 % ID Th-227/g organ
Th-227 in Liver ([1]; 336 h, 500 kBq/kg, study b2999): 0.17 % ID Th-227/g organ
Th-227 in Salivary gland ([1]; 336 h, 500 kBq/kg, study b2999): 0.00 % ID Th-227/g organ
Th-227 in Spleen ([1]; 336 h, 500 kBq/kg, study b2999): 0.15 % ID Th-227/g organ
Th-227 in Tumor ([1]; 336 h, 500 kBq/kg, study b2999): 7.78 % ID Th-227/g organ
Th-227 in prostate ([1]; 336 h, 500 kBq/kg, study b2999): 0.00 % ID Th-227/g organ
Proliferation assay on cancer cell lines by TTCs Default Pivot #3 IC50 [kBq/mL] C4-2 1000cells 375kBq/nmol (mean) (C4-2 cells): 0.17 kBq/mL

Reference: US20230072421A1, “TARGETED RADIOPHARMACEUTICALS FOR THE DIAGNOSIS AND TREATMENT OF PROSTATE CANCER” (Bayer AS, priority 2019, published 2023)
